The numbers were not newly measured in patent US8338072B2, “Resist composition, resist pattern forming process, and method for manufacturing semiconductor device” (Fujitsu Limited, priority 2006, dated 2012), which cites them from elsewhere.

By pKa is commonly meant the pH at which an ionisable group is half protonated.

The conditions of the first series: Table 1, additives 4A to 4F.
Consider `CC(O)C(=O)O` (stereo not shown) [Example 4B, Lactic acid], for which the pKa is recorded as 4.57.
Take `NCCN` [Example 4D, Ethylenediamine]: the pKa is listed as 7.12.
With `CCCCCCN` [Example 4E, Hexylamine], the pKa was 10.85.
In the case of `CCCCCN` [Example 4F, Pentylamine], the pKa is reported as 10.93.

The series is the same for the next values; noted with them: values for example additives.
As for `NCc1ccccc1O` [2-hydroxybenzylamine], the pKa was 8.63.
`NCCN` [Example 4D, Ethylenediamine]: the pKa is 7.12.
In the case of `CCCCCN` [Example 4F, Pentylamine], the pKa is 10.93.
With `CCCC(=O)O` [butyric acid], the pKa is recorded as 4.57.
With `NC1CCCCC1` [cyclohexylamine], the pKa is listed as 10.62.
As for `NC1CCCC1` [cyclopentylamine], the pKa is listed as 10.56.
For the molecule `c1ccc(Nc2ccccc2)cc1` [diphenylamine], the pKa is on record as 13.65.
Regarding `O=C(O)/C=C/C(=O)O` [fumaric acid], the pKa is listed as 3.07.
Consider `CCCN` [propylamine], for which the pKa is listed as 10.93.
Take `O=C(O)CCC(=O)O` [succinic acid]: the pKa was 3.99.
Consider `CCCCC(=O)O` [valeric acid], for which the pKa was 5.17.
As for methylpyridine, the pKa is listed as 5.80-6.10.
